{
  "source": "patent US9149530B2",
  "about": "“Compositions and methods for enhancing active agent absorption” (Nexus Pharma, Inc., priority 2006, dated 2015)",
  "system": "Sprague-Dawley rats",
  "experiment": "Blood glucose depression after intracolonic bovine pancreatic insulin given with absorption enhancer",
  "assay_type": "in vivo",
  "conditions": "enhancer 0 mg/kg (insulin alone), rats n=3",
  "experimental": "It is neutralized by 1 equivalent of sodium hydroxide. The pH is adjusted to 7-8 by 1N HCl and saturated sodium bicarbonate. Bovine pancreatic insulin (1.75 mL; Sigma, 10 mg/mL; in pH 8.2 HEPES buffer) is added and mixed by gentle swirling. The solution density is determined so that the required dose may be calculated.\nThe solution is then given to Sprague-Dawley rats (2-day fasting, female, 250-300 g, n=3), intracolonically. Blood samples are taken from the tail vein and glucose levels measured using an OneTouch® UltraSmart® blood glucose meter.",
  "data": [
    {"substance": "bovine pancreatic insulin: Bovine pancreatic insulin (Sigma, 10 mg/mL; in pH 8.2 HEPES buffer), the active agent co-administered", "values": [
      {"measurement": "Blood glucose, % of basal level", "setting": "0 min", "result": "100 % of basal level"},
      {"measurement": "Blood glucose, % of basal level", "setting": "30 min", "result": "94 ± 4 % of basal level"},
      {"measurement": "Blood glucose, % of basal level", "setting": "60 min", "result": "102 ± 7 % of basal level"},
      {"measurement": "Blood glucose, % of basal level", "setting": "90 min", "result": "105 ± 3 % of basal level"},
      {"measurement": "Blood glucose, % of basal level", "setting": "120 min", "result": "107 ± 7 % of basal level"},
      {"measurement": "Blood glucose, % of basal level", "setting": "150 min", "result": "94 ± 7 % of basal level"},
      {"measurement": "Blood glucose, % of basal level", "setting": "180 min", "result": "111 ± 7 % of basal level"},
      {"measurement": "Blood glucose, % of basal level", "setting": "210 min", "result": "113 ± 4 % of basal level"},
      {"measurement": "Blood glucose, % of basal level", "setting": "240 min", "result": "100 ± 7 % of basal level"}
    ]}
  ]
}
